IC50 data for two compounds are collected here from BindingDB's records for doi:10.1016/j.bmc.2020.115327 (Punjabi University, 2020).

The experiment addresses Signal transducer and activator of transcription 3 (Homo sapiens, UniProt P40763). Put plainly: Inhibition of STAT3 in human K562 cells assessed as reduction in STAT3 phosphorylation.

pIC50: −log10 of the molar value.

Broadly, the pIC50 is the negative decadic logarithm of the IC50, by convention in mol/L.

Chain of Signal transducer and activator of transcription 3 (P40763 whole entry): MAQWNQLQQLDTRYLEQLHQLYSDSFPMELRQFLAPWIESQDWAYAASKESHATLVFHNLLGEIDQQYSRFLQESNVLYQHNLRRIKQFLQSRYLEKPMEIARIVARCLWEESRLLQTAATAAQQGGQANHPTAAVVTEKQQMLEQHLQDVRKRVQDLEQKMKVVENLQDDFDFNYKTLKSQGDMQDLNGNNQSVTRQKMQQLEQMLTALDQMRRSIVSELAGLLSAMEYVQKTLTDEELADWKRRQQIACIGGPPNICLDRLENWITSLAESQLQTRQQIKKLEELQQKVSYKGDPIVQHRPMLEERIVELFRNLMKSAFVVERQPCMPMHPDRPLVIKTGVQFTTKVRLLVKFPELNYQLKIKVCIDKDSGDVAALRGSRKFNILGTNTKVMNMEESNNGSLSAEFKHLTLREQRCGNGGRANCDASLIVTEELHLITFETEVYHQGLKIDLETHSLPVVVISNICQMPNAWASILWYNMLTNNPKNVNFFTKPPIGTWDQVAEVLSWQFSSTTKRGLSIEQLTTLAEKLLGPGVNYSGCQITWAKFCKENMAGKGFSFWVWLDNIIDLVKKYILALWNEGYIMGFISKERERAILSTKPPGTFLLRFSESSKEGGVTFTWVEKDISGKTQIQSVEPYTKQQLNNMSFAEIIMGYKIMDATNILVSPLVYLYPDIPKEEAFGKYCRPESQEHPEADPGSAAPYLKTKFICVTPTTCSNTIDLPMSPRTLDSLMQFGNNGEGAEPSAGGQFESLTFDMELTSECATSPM

Consider `CCc1ccc(Nc2nc3cc(N)ccc3o2)cc1`, for which the pIC50 is 4.72.

Consider `CCc1ccc(Nc2nc3cc(NC(=O)c4ccccc4)ccc3o2)cc1`, for which the negative-log IC50 (pIC50) is 5.24.
